In patent US20220211752A1, “METHIONINE AND CYSTEINE DEPRIVATION DIET AND FORMULATIONS TO INCREASE EFFECTIVENESS OF CANCER THERAPY” (THE TRUSTEES OF COLUMBIA UNIVERSITY IN THE CITY OF NEW YORK, priority 2020, published 2022):
Peptide text beside a SMILES is read from it. * marks the point of attachment. Cbz = O=C(OCc1ccccc1)*; CH2F = FC*

Key:
[1] = tested on: MG1 cells; experiment: Live cell confocal microscopy of Bodipy-C11 lipid peroxidation; type: cell-based, mouse
Experimental: 1.3×10^5 MG1 cells were plated on poly-L-lysine coated 35 mm glass-bottom dishes (MatTek™ life sciences) for 24 hours. Cells were incubated for 30 minutes in basal media (DMEM (Gibco™ 11965092) with 0.5% FBS (Gibco™ 16000044), antibiotic-antimycotic (Thermo Scientific™ 15240096), N2 supplement (Thermo Fisher Scientific™, 17502-048), and 10 ng/ml each of recombinant human PDGF-AA (Peprotech, 100-13A) and FGFb (Peprotech™. 10018B50UG)) media containing 5 μM BODIPY-C11. Media were replaced with fresh basal media and cells were imaged on a Nikon™ A1RMP confocal microscope at 37° C. in a humidified chamber with 5% C02. Time-lapse images were acquired using a 40×/1.3 NA oil immersion objective and focus was maintained using the Perfect Focus™ System. Excitation was achieved using 488 nm and 561 nm laser illumination; emission of the oxidized and reduced forms of BODIPY-C11 was captured using a 525/50 and a 595/50 filter, respectively. At time 0, RSL3 (500 nM) or RSL3 (500 nM)+Ferrostatin (2 μM) were added and images were acquired every 30 seconds for a total of 30 minutes. Images were exported to ImageJ™ for analysis.

[2] = tested on: mouse glioma cell lines; experiment: Dose response cell viability, IKE with or without CMD; type: cell-based; conditions: 10 uM Ferrostatin-1
Text: (§1) A basis for the invention that depriving glioma cells of sulfur containing amino acids (cystine and methionine) will result in lower levels of glutathione (which normally protects cells from lipid peroxidation) and therefore would sensitize the glioma cells to ferroptosis inducing drugs. […] Both these effects were rescued by ferrostatin.

[3] = tested on: MG4 cells; experiment: Bodipy-C11 flow cytometry, radiation plus CMD; type: cell-based, mouse; conditions: Ferrostatin-1
Text: (§2) Adherent cells were lifted using TrypLE (ThermoFisher™ Scientific).
Radiation is a known ferroptosis inducer. […] Treatment of both mouse glioma cells (MG1 and MG4) and human GBM cells (TS543) is shown.

[4] = tested on: MG1 cells; experiment: Bodipy-C11 flow cytometry, IKE with or without CMD; type: cell-based, mouse; conditions: 10 uM Ferrostatin-1
Text: as §2, §1

[5] = tested on: human diffuse astrocytoma slice culture; experiment: H2DCFDA flow cytometry of human glioma slice cultures, IKE plus radiation; type: cell-based; conditions: 10 μM IKE, 0 or 2 Gy radiation for 24 hours
Text: To further understand the translational relevance of these findings to human glioma samples, an acute organotypic slice culture model was used. […] The tissue was placed on a Millicell™ cell culture insert in treatment media. This media comprised of DMEM+ Hams-F12 without cysteine or methionine (MyBioSource, MBS652871) or DMEM+ Hams-F12 with cysteine and methione to create the to varied conditions that would undergo radiation or IKE treatment.
Horizontal bars indicate H2DCFDA-positive cell populations.

[6] = tested on: MG3 cells; experiment: 384-well dose-response to GPX4 inhibitors with or without CMD; type: cell-based, mouse; conditions: dose response assays, with or without 2 uM Ferrostatin-1
Experimental: (§3) Cell viability was assessed using the Cell-Titer^Glo™ luminescence assay. Murine glioma cells were plated in triplicate at a density of 6,000 cells per well in a 96-well plate (ThermoFisher Scientific™). Twenty-four hours after plating, media was removed and treatment media was added. Viability was assessed 24 hours after treatment. Human glioma cells were plated at a density of 2,000 cells per well. Cells were plated in normal media or cysteine/methionine deprived media. Twenty-four hours after plating, media was changed to begin drug treatment. Forty-eight hours after plating, luminescence was measured.
(§4) Averages across 3 independent experiments are reported. For experiments conducted in 384-well plates, mouse glioma cells were plated at a density of 1,600 cells per well and human glioma cells were plated at a density of 1,000 cells per well. The assays as described above were quantified using Cell-Titer Glo™ (Promega™) ATP based bioluminescence. To determine cell viability, a 50% Cell Titer Glo™ and 50% cell culture medium was added to each well and incubated at room temperature for 10 minutes. Luminescence was assessed on a Promega™ GloMax™ Microplate Reader.

[7] = tested on: MG1 cells; experiment: Dose-response of MG1 cells to RSL3 plus cell death inhibitors; type: cell-based, mouse; conditions: 5 uM ZVAD-FMK; 2 uM Nec-1s
Experimental: as §3, §4

[8] = tested on: human primary glioblastoma; experiment: H2DCFDA flow cytometry of ex vivo organotypic slice cultures, RSL3 with or without CMD; type: cell-based; conditions: 100 nM RSL3 plus CMD
Experimental: Mice were sacrificed by cervical dislocation.
Slice cultures were dissociated in papain (9.5 mL DPBS, 500 μL papain, 1.67 μL 6 M NaOH, 2 mg L-cysteine, 100 μL DNAse) and incubated in a warm bath shaker at 37° C. for 30 minutes. After centrifugation at 400×g for 5 minutes, the papain was aspirated and slices were resuspended in ice cold PBS and triturated with glass tip Pasteur pipettes. This process was repeated one time and then the cell suspension was resuspended in a 30% sucrose solution and spun at 1000×g for 5 minutes. The cell suspension was resuspended in PBS and stained with Calcein Blue (final concentration 5 μM) and H2DCFDA (final concentration 10 μM), incubated in a water bath at 37° C. for 10 minutes. Suspensions were spun down at 500×g for 5 minutes and resuspended in PBS and taken for flow cytometric analysis on a LSRIII Fortessa™ machine. Cell and Slice culture suspensions were filtered in polystyrene flow tubes (Fisher Scientific™). Data were collected on an LSRIII Fortessa™ flow analyzer and analyzed using FlowJo™ v10.
The slices were treated with RSL3 and assayed via flow cytometry for levels of reactive oxygen species (ROS) using H2DCFDA.

[9] = tested on: glioma cell lines; experiment: Cell viability dose-response to RSL3 (Cell-Titer Glo); type: cell-based, mouse, human
Experimental: as §3, §4
To test this, media was adapted for cell culture based on the previous ferroptosis permissive glioma culture methods. […]

CCOC(=O)c1ccc(NC2CCCCC2)c(N)c1 [Ferrostatin-1]
effect on RSL3 induced lipid peroxidation ([1]; 500 nM RSL3 and 2 uM Ferrostatin-1): prevented this lipid peroxidation | rescue of CMD enhanced IKE induced cell death [2]: rescued | rescue of lipid peroxidation from radiation plus CMD [3]: complete rescue | rescue of CMD plus IKE lipid peroxidation [4]: rescued

CC(C)Oc1ccc(C(=O)Cn2ccnc2)cc1-n1c(CN2CCN(C(=O)COc3ccc(Cl)cc3)CC2)nc2ccccc2c1=O [IKE, imidazole ketone erastin]
H2DCFDA-positive cells, interaction with radiation [5]: synergy of radiation with IKE treatment

Cc1onc(C(=O)N2CCN(C(c3ccc(Cl)cc3)c3ccc(Cl)cc3)CC2)c1[N+](=O)[O-] [ML-210]
ferroptosis in combination with CMD [6]: synergistic enhancement of ferroptosis with CMD

CN1C(=O)NC(Cc2c[nH]c3c(Cl)cccc23)C1=O (stereo not shown) [Nec-1s]
rescue of RSL3 mediated cell death [7]: not rescuable

COC(=O)c1ccc([C@@H]2c3[nH]c4ccccc4c3C[C@@H](C(=O)OC)N2C(=O)CCl)cc1 [RSL3]
reactive oxygen species (ROS) levels, H2DCFDA [8]: increased ROS to levels equivalent to a high dose of RSL3 (500 nM) | lipid peroxidation (Bodipy-C11 green fluorescence shift) ([1]; 500 nM RSL3): induction of lipid peroxidation | cell viability with CMD plus RSL3 ([9]; dose response curves, dual treatment (FIG. 30)): stark difference in cell viability with dual treatment | sensitivity to ferroptosis by RSL3 ([9]; five cell lines assayed, 384-well dose-response): baseline sensitivity to ferroptosis | ferroptosis in combination with CMD [6]: synergistic enhancement of ferroptosis with CMD

COC(=O)C[C@H](NC(=O)[C@H](C)NC(=O)[C@@H](NC(=O)OCc1ccccc1)C(C)C)C(=O)CF [ZVAD-FMK] (Cbz-Val-Ala-Asp(OMe)-CH2F)
rescue of RSL3 mediated cell death [7]: not rescuable
